According to patent US11434227B2, “Broad spectrum antibacterial activity of novel bisbenzimidazoles targeting topoisomerase IA and the synergistic composition of bisbenzimidazole with efflux pump inhibitors against pathogenic bacteria” (Jawaharlal Nehru University (JNU), priority 2016, dated 2022):
Values after ≈ are worked out from the molar mass of the structure shown. Where two headings read alike, the source gives them in different places.

Key:
[1] = tested on: Acinetobacter baumannii (AB312); assay: Susceptibility (MIC50/MIC90), broth microdilution
Description: (§1) MICs were determined by the broth microdilution method according to CLSI methods (Clinical and Laboratory Standards Institute, 2005). Inoculants were incubated at 37° C. on cation adjusted Mueller Hinton (MH) Broth for 18 to 24 h. Compound were dissolved in media to 10 doubling dilutions from 128 to 0.125 μg/mL. All the bacterial strains were grown in 96 well plate with low evaporation lid (Falcon, Becton Dickinson) in presence of derivatives of benzimidazoles at 0.125, 0.25, 0.5, 1, 2, 4, 8, 16, 32, 64, 128, 256 μg/mL concentrations. […] Plates were read by Tecan Micro-plate Reader at 600 nm.

[2] = tested on: E. coli K12 mutant ΔtolC; assay: Susceptibility of E. coli K12 and mutants (MIC90); details: Escherichia coli
Description: as §1

[3] = tested on: M. tuberculosis; assay: Effect on virulent and avirulent strains of M. tuberculosis; format: cell-based, Mycobacterium tuberculosis
[4] = tested on: E. coli K12 mutant ΔompC; assay: Susceptibility of E. coli K12 and mutants (MIC90); details: Escherichia coli
Description: as §1

[5] = tested on: Escherichia coli (ATCC 25922); assay: Susceptibility (MIC, PAE, MBC), broth microdilution
Description: as §1

[6] = tested on: Pseudomonas aeruginosa (MTCC 366); assay: Susceptibility (MIC50/MIC90), broth microdilution; details: MTCC366
Description: as §1

[7] = tested on: isogenic efflux deleted strains; assay: Susceptibility of isogenic efflux deleted strains versus wild type; format: cell-based, Escherichia coli; details: in comparison to wild type strains
[8] = tested on: E. coli K12 mutant ΔTopIB; assay: Susceptibility of E. coli K12 and mutants (MIC90); details: Escherichia coli
Description: as §1

[9] = tested on: Acinetobacter baumannii (AB387); assay: Susceptibility (MIC50/MIC90), broth microdilution
Description: as §1

[10] = tested on: Staphylococcus sp. (1016); assay: Susceptibility (MIC50/MIC90), broth microdilution
Description: as §1

[11] = tested on: Klebsiella planticola (K589); assay: Susceptibility (MIC50/MIC90), broth microdilution
Description: as §1

[12] = tested on: Enterococcus sp. (1121); assay: Susceptibility (MIC50/MIC90), broth microdilution
Description: as §1

[13] = tested on: Pseudomonas aeruginosa (MTCC1688); assay: Susceptibility (MIC50/MIC90), broth microdilution
Description: as §1

[14] = tested on: Enterococcus sp. (432); assay: Susceptibility (MIC50/MIC90), broth microdilution
Description: as §1

[15] = tested on: Klebsiella planticola (K1164); assay: Susceptibility (MIC50/MIC90), broth microdilution
Description: as §1

[16] = tested on: Salmonella typhimurium (MTCC 1251); assay: Susceptibility (MIC50/MIC90), broth microdilution; details: Salmonella enterica
Description: as §1

[17] = tested on: Enterococcus sp. (2105); assay: Susceptibility (MIC50/MIC90), broth microdilution
Description: as §1

[18] = tested on: Mycobacterium tuberculosis H37Ra (avirulent); assay: Susceptibility of Mycobacterium tuberculosis strains (MIC90); format: cell-based
[19] = tested on: Enterococcus sp. (1367); assay: Susceptibility (MIC50/MIC90), broth microdilution
Description: as §1

[20] = tested on: Escherichia coli 385; assay: Susceptibility (MIC50/MIC90), broth microdilution
Description: as §1

[21] = tested on: E. coli K12; assay: Susceptibility of E. coli K12 and mutants (MIC90); details: Escherichia coli
Description: as §1

[22] = tested on: Enterococcus sp. (1365); assay: Susceptibility (MIC50/MIC90), broth microdilution
Description: as §1

[23] = tested on: Pseudomonas aeruginosa (Ps162); assay: Susceptibility (MIC50/MIC90), broth microdilution
Description: as §1

[24] = tested on: E. coli K12 mutant ΔemrA; assay: Susceptibility of E. coli K12 and mutants (MIC90); details: Escherichia coli
Description: as §1

[25] = tested on: Klebsiella planticola (MTCC 2272); assay: Susceptibility (MIC50/MIC90), broth microdilution; details: MTCC2272
Description: as §1

[26] = tested on: Klebsiella planticola (K235); assay: Susceptibility (MIC50/MIC90), broth microdilution
Description: as §1

[27] = tested on: E. coli K12 mutant ΔTopIA; assay: Susceptibility of E. coli K12 and mutants (MIC90); details: Escherichia coli
Description: as §1

[28] = tested on: Staphylococcus sp. (976); assay: Susceptibility (MIC50/MIC90), broth microdilution
Description: as §1

[29] = tested on: Salmonella typhimurium (St412); assay: Susceptibility (MIC50/MIC90), broth microdilution; details: Salmonella enterica
Description: as §1

[30] = tested on: Mycobacterium tuberculosis H37Rv (virulent); assay: Susceptibility of Mycobacterium tuberculosis strains (MIC90); format: cell-based
[31] = tested on: Shigella flexineri (MTCC1457); assay: Susceptibility (MIC50/MIC90), broth microdilution; format: cell-based
[32] = tested on: E. coli ATCC 25922; assay: Neutropenic thigh infection model
Description: The neutropenic mice thigh infection model, fully described by. Craig, was used in this study. Female Balb/c mice (6 mice per dosing group) weighing 20-25 g were rendered neutropenic with 2 intraperitoneal injections of cyclophosphamide (150 mg/kg of body weight 4 days prior to bacterial inoculation and 100 mg/kg 1 day before inoculation) 2 h prior to bacterial inoculation. […] Bacteria were injected into the right thigh of each mouse at time zero. […] Neutropenia was defined as an absolute neutrophil count of 500 polymorphonuclear leukocytes/cm^3 of blood. The bacterial suspension was diluted to a concentration of 10^6 CFU/mL with normal saline. Then, 0.1 mL of the bacterial suspension was injected into each posterior thigh muscle 2 h after the second dose of cyclophosphamide was administered. […] Twenty-four hours after drug treatment was begun, the mice were humanely sacrificed. Right thigh muscles from each mouse were aseptically collected, homogenized and serially diluted 1:10 in phosphate buffer saline, and processed for quantitative cultures.

[33] = tested on: Acinetobacter baumannii (MTCC1920); assay: Susceptibility (MIC50/MIC90), broth microdilution
Description: as §1

[34] = tested on: S. aureus 1016; assay: Neutropenic thigh infection model; format: in vivo, Balb/c mice
Description: Craig, was used in this study.

[35] = tested on: E. coli K12 mutant ΔacrA; assay: Susceptibility of E. coli K12 and mutants (MIC90); details: Escherichia coli
Description: as §1

[36] = tested on: E. coli K12 mutant ΔompF; assay: Susceptibility of E. coli K12 and mutants (MIC90); details: Escherichia coli
Description: as §1

[37] = tested on: Staphylococcus sp. (982); assay: Susceptibility (MIC50/MIC90), broth microdilution
Description: as §1

[38] = tested on: Enterococcus sp.(1150); assay: Susceptibility (MIC50/MIC90), broth microdilution
Description: as §1

[39] = tested on: Escherichia coli 392; assay: Susceptibility (MIC50/MIC90), broth microdilution
Description: as §1

[40] = Neutropenic thigh, ATCC 25922, single i.v. bolus, 24 h
[41] = Escherichia coli, ATCC25922, Escherichia coli (ATCC 25922), Table 2

Compound: CCCCN1CCN(c2ccc3nc(-c4ccc5[nH]c(-c6ccc(OC)c(OC)c6)nc5c4)[nH]c3c2)CC1 [SP12a, 5-(4-butylpiperazin-1-yl)-2′-(3,4-dimethoxyphenyl)-1H,1′H-2,5′-bibenzo[d]imidazole]
- MIC50 [1]: 4.6 µg/mL (≈ 9.01 µM)
- MIC90 [1]: 12.9 µg/mL (≈ 25.3 µM)
- MIC90 [2]: 0.7 µg/mL (≈ 1.37 µM)
- effect on M. tuberculosis [3]: effective against M. tuberculosis
- MIC90 [4]: 6.7 µg/mL (≈ 13.1 µM)
- MIC90 ([5]; ATCC 25922, Table 6): 7.3 ± 0.024 µg/mL (≈ 14.3 µM)
- MIC50 ([5]; Escherichia coli, ATCC25922): 3 µg/mL (≈ 5.87 µM)
- MIC90 ([5]; Escherichia coli, ATCC25922): 7.3 µg/mL (≈ 14.3 µM)
- MIC50 [6]: < 0.25 µg/mL
- MIC90 [6]: < 0.25 µg/mL
- sensitisation of efflux deleted strains [7]: more sensitised
- MIC90 [8]: 12.8 µg/mL (≈ 25.1 µM)
- MIC50 [9]: 3.6 µg/mL (≈ 7.05 µM)
- MIC90 [9]: 10.8 µg/mL (≈ 21.1 µM)
- MIC90 [10]: 5.7 ± 0.046 µg/mL (≈ 11.2 µM)
- MIC50 ([10]; Staphylococcus): 1.2 µg/mL (≈ 2.35 µM)
- MIC90 ([10]; Staphylococcus): 5.7 µg/mL (≈ 11.2 µM)
- MIC50 [11]: 10.3 µg/mL (≈ 20.2 µM)
- MIC90 [11]: 29.4 µg/mL (≈ 57.6 µM)
- MIC50 [12]: < 0.25 µg/mL
- MIC90 [12]: 0.88 µg/mL (≈ 1.72 µM)
- MIC50 [13]: 128 µg/mL (≈ 251 µM)
- MIC90 [13]: 128 µg/mL (≈ 251 µM)
- MIC50 [14]: > 128 µg/mL
- MIC90 [14]: > 128 µg/mL
- MIC50 [15]: > 128 µg/mL
- MIC90 [15]: 128 µg/mL (≈ 251 µM)
- MIC50 [16]: < 0.25 µg/mL
- MIC90 [16]: 0.25 µg/mL (≈ 0.49 µM)
- MIC50 [17]: 4.32 µg/mL (≈ 8.46 µM)
- MIC90 [17]: 12.2 µg/mL (≈ 23.9 µM)
- MIC90 [18]: 7.3 µg/mL (≈ 14.3 µM)
- MIC50 [19]: < 0.25 µg/mL
- MIC90 [19]: < 0.25 µg/mL
- MIC50 [20]: 3.9 µg/mL (≈ 7.64 µM)
- MIC90 [20]: 6.5 µg/mL (≈ 12.7 µM)
- MIC90 [21]: 16 µg/mL (≈ 31.3 µM)
- MIC50 [22]: < 0.25 µg/mL
- MIC90 [22]: < 0.25 µg/mL
- MIC50 [23]: 5.22 µg/mL (≈ 10.2 µM)
- MIC90 [23]: > 128 µg/mL
- MIC90 [24]: 7.9 µg/mL (≈ 15.5 µM)
- MIC50 [25]: 128 µg/mL (≈ 251 µM)
- MIC90 [25]: 128 µg/mL (≈ 251 µM)
- MIC50 [26]: 3.1 µg/mL (≈ 6.07 µM)
- MIC90 [26]: 25.9 µg/mL (≈ 50.7 µM)
- MIC90 [27]: 3.9 µg/mL (≈ 7.64 µM)
- MIC50 [28]: < 0.25 µg/mL
- MIC90 [28]: 0.4 µg/mL (≈ 0.783 µM)
- MIC50 [29]: < 0.25 µg/mL
- MIC90 [29]: 0.25 µg/mL (≈ 0.49 µM)
- MIC90 [30]: 14.6 µg/mL (≈ 28.6 µM)
- MIC50 [31]: 0.24 µg/mL (≈ 0.47 µM)
- MIC90 [31]: 0.8 µg/mL (≈ 1.57 µM)
- Dose at 0.8 log reduction [32, 40]: 2 mg/kg bw/day
- Dose at 3.4 log reduction [32, 40]: 4 mg/kg bw/day
- bacterial load reduction ([32]; balb/c mice neutropenia thigh model, gram negative ATCC25922): significant bacterial load reduction
- MIC50 [33]: 128 µg/mL (≈ 251 µM)
- MIC90 [33]: 128 µg/mL (≈ 251 µM)
- Dose at 1.7 log reduction ([34]; Neutropenic thigh, S. aureus 1016, single i.v. bolus, 24 h): 4 mg/kg bw/day
- bacterial load reduction ([34]; balb/c mice neutropenia thigh model, Gram positive S1016): significant bacterial load reduction
- MIC90 [35]: 3.4 µg/mL (≈ 6.66 µM)
- MIC90 [36]: 6.5 µg/mL (≈ 12.7 µM)
- MIC50 [37]: 0.5 µg/mL (≈ 0.979 µM)
- MIC90 [37]: 1 µg/mL (≈ 1.96 µM)
- MIC50 [38]: < 0.25 µg/mL
- MIC90 [38]: < 0.25 µg/mL
- MIC50 [39]: 1.5 µg/mL (≈ 2.94 µM)
- MIC90 [39]: 13.7 µg/mL (≈ 26.8 µM)

Compound: CCCCN1CCN(c2ccc3nc(-c4ccc5[nH]c(-c6ccc(OCC)cc6)nc5c4)[nH]c3c2)CC1 [SP12b, 5-(4-butylpiperazin-1-yl)-2′-(4-ethoxyphenyl)-1H,1′H-2,5′-bibenzo[d]imidazole]
- MIC50 [1]: 14.6 µg/mL (≈ 29.5 µM)
- MIC90 [1]: 28.6 µg/mL (≈ 57.8 µM)
- MIC90 [2]: 2.8 µg/mL (≈ 5.66 µM)
- effect on M. tuberculosis [3]: effective against M. tuberculosis
- MIC90 [4]: 30.9 µg/mL (≈ 62.5 µM)
- MIC50 [5, 41]: 9.5 µg/mL (≈ 19.2 µM)
- MIC90 [5, 41]: 24.9 µg/mL (≈ 50.3 µM)
- MIC50 [6]: 0.4 µg/mL (≈ 0.809 µM)
- MIC90 [6]: 0.8 µg/mL (≈ 1.62 µM)
- sensitisation of efflux deleted strains [7]: more sensitised
- MIC90 [8]: 17.8 µg/mL (≈ 36 µM)
- MIC50 [9]: 12 µg/mL (≈ 24.3 µM)
- MIC90 [9]: 16 µg/mL (≈ 32.3 µM)
- MIC50 ([10]; Staphylococcus): < 0.25 µg/mL
- MIC90 ([10]; Staphylococcus): 0.92 µg/mL (≈ 1.86 µM)
- MIC50 [11]: 3.4 µg/mL (≈ 6.87 µM)
- MIC90 [11]: 6.8 µg/mL (≈ 13.7 µM)
- MIC50 [12]: < 0.25 µg/mL
- MIC90 [12]: 0.92 µg/mL (≈ 1.86 µM)
- MIC50 [13]: > 128 µg/mL
- MIC90 [13]: 128 µg/mL (≈ 259 µM)
- MIC50 [14]: > 128 µg/mL
- MIC90 [14]: > 128 µg/mL
- MIC50 [15]: > 128 µg/mL
- MIC90 [15]: 128 µg/mL (≈ 259 µM)
- MIC50 [16]: < 0.25 µg/mL
- MIC90 [16]: 0.25 µg/mL (≈ 0.505 µM)
- MIC50 [17]: 3.7 µg/mL (≈ 7.48 µM)
- MIC90 [17]: 9.08 µg/mL (≈ 18.4 µM)
- MIC90 [18]: 1.78 µg/mL (≈ 3.6 µM)
- MIC50 [19]: < 0.25 µg/mL
- MIC90 [19]: 1 µg/mL (≈ 2.02 µM)
- MIC50 [20]: 15 µg/mL (≈ 30.3 µM)
- MIC90 [20]: 27 µg/mL (≈ 54.6 µM)
- MIC90 [21]: 32 µg/mL (≈ 64.7 µM)
- MIC50 [22]: < 0.25 µg/mL
- MIC90 [22]: 2 µg/mL (≈ 4.04 µM)
- MIC50 [23]: 40.5 µg/mL (≈ 81.9 µM)
- MIC90 [23]: 70.3 µg/mL (≈ 142 µM)
- MIC90 [24]: 7.4 µg/mL (≈ 15 µM)
- MIC50 [25]: > 128 µg/mL
- MIC90 [25]: 128 µg/mL (≈ 259 µM)
- MIC50 [26]: 25.9 µg/mL (≈ 52.4 µM)
- MIC90 [26]: 59.5 µg/mL (≈ 120 µM)
- MIC90 [27]: 5.7 µg/mL (≈ 11.5 µM)
- MIC50 [28]: < 0.25 µg/mL
- MIC90 [28]: 0.42 µg/mL (≈ 0.849 µM)
- MIC50 [29]: < 0.25 µg/mL
- MIC90 [29]: 0.25 µg/mL (≈ 0.505 µM)
- MIC90 [30]: 9.8 µg/mL (≈ 19.8 µM)
- MIC50 [31]: 1.24 µg/mL (≈ 2.51 µM)
- MIC90 [31]: 3.01 µg/mL (≈ 6.09 µM)
- MIC50 [33]: > 128 µg/mL
- MIC90 [33]: 128 µg/mL (≈ 259 µM)
- MIC90 [35]: 3.9 µg/mL (≈ 7.88 µM)
- MIC90 [36]: 30.9 µg/mL (≈ 62.5 µM)
- MIC50 [37]: > 128 µg/mL
- MIC90 [37]: > 128 µg/mL
- MIC50 [38]: < 0.25 µg/mL
- MIC90 [38]: 2 µg/mL (≈ 4.04 µM)
- MIC50 [39]: 1.8 µg/mL (≈ 3.64 µM)
- MIC90 [39]: 60 µg/mL (≈ 121 µM)
